We go through four molecules from paper PMC12140300, “Development of Carbon‐11 Labeled Pyrimidine Derivatives as Novel Positron Emission Tomography (PET) Agents Enabling Brain Sigma‐1 Receptor Imaging” (Advanced Science, 2025).

Like-named read-outs stand apart in the source and are kept apart here.

The test system of series [1] is σ2R. The arrangement: method as in PMID 25420090. As to conditions: selectivity ratio, previous work; cited from earlier work.
Series [2] relates to non-target receptors or ion channels. Set-up: method as in PMID 25420090. Particulars: cited from earlier work.
Series [3] has as its system σ1R. Set-up: method as in PMID 25420090. As to conditions: rodent acute and neuropathic pain models; cited from earlier work.
Details of series [4]: method as in PMID 25420090. As to conditions: cited from earlier work.
Series [5] relates to σ2R. Set-up: method as in PMID 26384292. Particulars: selectivity ratio; cited from earlier work.
Series [6] concerns the target vesicular acetylcholine transporter (VAChT). Particulars: off-target affinity; literature value, no reference given; cited from earlier work.
In series [7] the target is emopamil binding protein (EBP). Set-up: method as in PMID 11377189. As to conditions: off-target affinity; cited from earlier work.
For series [8], the target named is T1, σ1R (Mus musculus, UniProt O55242).
T1 construct: The PET/CT studies in mice followed previously reported procedures; from tissue; host or cells: mouse brain in vivo (C57BL/6 wild type; 5xFAD transgenic)
In words: Mice PET/CT imaging, baseline and self-blocking. In kind it is in vivo, C57BL/6 mice. The procedure: PET/CT imaging studies of [^11C]CNY‐01 and [^11C]CNY‐02 were performed in male C57BL/6 mice. […] The whole‐brain time‐activity curve (TAC) of each tracer was generated. […] To investigate the binding specificity of [^11C]CNY‐01 and [^11C]CNY‐02, blocking studies were carried out by pre‐administrating mice with corresponding unlabeled ligands. […] This is due to the receptors in peripheral tissues being occupied by CNY‐01, leading to more radiotracer entering the brain and quickly washing out. […] Of note, the TACs show an increase in brain tracer uptake during the blocking studies, which could be attributed to peripheral blocking effects. To address this, we normalized the brain uptake data to the maximum radioactivity observed in the blood (input function). This normalization allowed us to account for peripheral changes in tracer availability.
Figure 3 Mice PET/CT study with [^11C]CNY‐01 and [^11C]CNY‐02. A) Representative baseline and blocking (pre‐treated with 1.0 mg kg^−1 CNY‐01) PET/CT images of [^11C]CNY‐01 focused on the brain (summed 30‒60 min, n = 4). B) Whole brain time‐activity curves of [^11C]CNY‐01 for baseline and blocking mice. C) The normalized baseline and blocking TACs of [^11C]CNY‐01 (normalized the brain uptake curves with the maximum radioactivity in the blood at each time point). D) Representative baseline and blocking (pre‐treated with 1.0 mg kg^−1 CNY‐02) PET/CT images of [^11C]CNY‐02 focused on the brain (summed 30‒60 min, n = 4). E) Whole brain time‐activity curves of [^11C]CNY‐02 for baseline and blocking mice. F) The normalized baseline and blocking TACs of [^11C]CNY‐02 (normalized the brain uptake curves with the maximum radioactivity in the blood at each time point). Data were presented as mean ± standard error of the mean (SEM). Quantification of results was performed using Student's t‐test (***p < 0.0001).
The PET/CT studies in mice followed previously reported procedures with minor modifications.^[ [53], [54] ^] Mice (wild‐type: C57BL/6, male, 6‐month‐old; AD transgenic: 5xFAD, male, 6‐month‐old, n = 4 for each group) were anesthetized with inhalational isoflurane (Patterson Vet Supply, Inc., Greeley, CO, USA) at 2.0% in a carrier of 2 L min^−1 medical oxygen, and maintained at 1.0% isoflurane during the imaging scan. Mice were injected with radiotracer (200 µL) via lateral tail vein catheterization at the start of the dynamic PET scan (Gamma Medica, Northridge, CA, USA). For blocking studies, the blocking agent was administered via the tail vein 5 min before radiotracer injection. Dynamic PET acquisition lasted 60 min and was followed by computed tomography (CT) for anatomic co‐registration. […] Reconstructed images were exported from the scanner in DICOM format and were analyzed using PMOD (PMOD 4.01).

The test system of series [9] is σ1R. Set-up: method as in PMID 28572487. Particulars: human brain, three-hour imaging period; cited from earlier work.
The target of series [10] is σ1R. Particulars: cited from earlier work.

T1 sequence (O55242 whole entry): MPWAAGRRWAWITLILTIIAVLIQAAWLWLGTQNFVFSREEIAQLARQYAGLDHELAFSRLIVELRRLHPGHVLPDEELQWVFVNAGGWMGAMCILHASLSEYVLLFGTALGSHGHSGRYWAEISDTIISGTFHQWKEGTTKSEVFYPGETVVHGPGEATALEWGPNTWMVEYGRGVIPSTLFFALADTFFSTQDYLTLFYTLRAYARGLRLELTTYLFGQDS

`Cc1nc(-c2ccc(Cl)cc2)nc(OCCCN2CCCCC2)c1Cl` [Lan-0101, 5‐chloro‐2‐(4‐chlorophenyl)‐4‐methyl‐6‐(3‐(piperidin‐1‐yl)propoxy)pyrimidine]: the σ2R/σ1R in [1] is 1344. In addition, in series [2], the “binding affinities to non-target receptors or ion channels” value is reported as “no significant binding affinities”. Moreover, the antinociceptive effects entry in series [3] is “dose‐dependent antinociceptive effects”. Further, the brain penetration entry in [4] is given as “good brain penetration”.

In the case of `COc1cc(CCN2CCN(CCCc3ccccc3)CC2)ccc1O[11CH3]` [[^11C]SA4503], the σ2R/σ1R in series [5] is on record as 13.3–55.0. Further, the Ki in [6] is 50 nM; in series [7], 1.7 nM.

With `Cc1nc(-c2ccc(Cl)cc2)nc(OCCCN2CCN([11CH3])CC2)c1Cl` [[^11C]CNY-02], the “maximum standard uptake value (SUV) in the brain” value in [8] (male C57BL/6 mice, baseline PET/CT) came out at 0.7. Moreover, the “blocking effect, brain uptake normalized to maximum radioactivity in the blood” value in series [8] (pre-treated with 1.0 mg kg^−1 of the corresponding unlabeled ligand) is given as “does not show a significant blocking effect”.

With `O=c1sc2cc(CCC[18F])ccc2n1CCN1CCCCCC1` [[^18F]FTC-146], in [9], the brain clearance result is reported as “unexpectedly slow brain clearance”. Moreover, in series [10], the Ki was 0.0025 nM.
